Laboratory results: patent US20130237530A1, “BENZODIAZEPINE DERIVATIVES, COMPOSITIONS AND METHODS FOR TREATING COGNITIVE IMPAIRMENT” (priority 2010, published 2013)
“Also recorded” adds a separate entry of the source. Read-outs that look alike come from different tables or passages of the source.

Legend:
[1] = tested on: aged-impaired (AI) rats; test: Morris water maze behavioral task, ICV infusion; format: in vivo, rat; conditions: 100 μg ICV
Description: The effects of 6,6 dimethyl-3-(3-hydroxypropyl)thio-1-(thiazol-2-yl)-6,7-dihydro-2-benzothiophen-4(5H)-one on the in vivo spatial memory retention of aged-impaired (AI) rats were assessed in a Morris water maze behavioral task. A water maze is a pool surrounded with a novel set of patterns relative to the maze.
Cognitively impaired aged rats were implanted unilaterally with a cannula into the lateral ventricle. Stereotaxic coordinates were 1.0 mm posterior to bregma, 1.5 mm lateral to midline, and 3.5 mm ventral to the skull surface. After about a week of recovery, the rats were pre-trained in a water maze for 2 days (6 trials per day) to locate a submerged escape platform hidden underneath the surface of the pool, in which the escape platform location varied from day to day. No intracerebroventricular (ICV) infusion was given during pre-training
After pre-training, rats received ICV infusion of either 100 μg 6,6 dimethyl-3-(3-hydroxypropyl)thio-1-(thiazol-2-yl)-6,7-dihydro-2-benzothiophen-4(5H)-one (n=6) in 5 μl DMSO or vehicle DMSO (n=5) 40 min prior to water maze training and testing. Training consisted of 8 trials per day for 2 days where the hidden escape platform remained in the same location. Rats were given 60 seconds to locate the platform with a 60 seconds inter-trial interval. The rats were given a probe test (120 seconds) 24 hr after the end of training where the escape platform was removed. During the training, there were 4 blocks, where each block had 4 training trials.
During a test trial 24 hr after training, the escape platform was removed. The search/swim pattern of the rats was used to measure whether the rats remember where the escape platform was located during pre-trial training in order to test for the long-term memory of the rats. In this trial, “target annulus” is a designated area 1.5 times the size of the escape platform around the area where the platform was located during pre-trial training “Opposite annulus” is a control area of the same size as the size of the target annulus, which is located opposite to the target annulus in the pool. If the rats had good long term memory, they would tend to search in the area surrounding the location where the platform was during the pre-trial training (i.e., the “target” annulus; and not the “opposite” annulus). “Time in annulus” is the amount of time in seconds that the rat spent in the target or opposite annulus area. “Number (#) of crossings” in annulus is the number of times the rat swam across the target or opposite annulus area.

[2] = target: T1, GABAA receptors (α5β3γ2) (Homo sapiens, UniProt P18507+P28472+P31644); test: Potentiation of GABA EC50 current, two-electrode voltage clamp (TEVC) in Xenopus oocytes expressing GABAA α5β3γ2; format: cell-based; conditions: read-out: GABA α5 EC50 % potentiation
T1 construct: myc-His (from vector pcDNA3.1 myc-His); expressed in transfected cells; host or cells: Xenopus laevis oocytes injected with cDNAs in pcDNA3.1 / pcDNA3.1 myc-His
T1 sequence (P31644 32-462): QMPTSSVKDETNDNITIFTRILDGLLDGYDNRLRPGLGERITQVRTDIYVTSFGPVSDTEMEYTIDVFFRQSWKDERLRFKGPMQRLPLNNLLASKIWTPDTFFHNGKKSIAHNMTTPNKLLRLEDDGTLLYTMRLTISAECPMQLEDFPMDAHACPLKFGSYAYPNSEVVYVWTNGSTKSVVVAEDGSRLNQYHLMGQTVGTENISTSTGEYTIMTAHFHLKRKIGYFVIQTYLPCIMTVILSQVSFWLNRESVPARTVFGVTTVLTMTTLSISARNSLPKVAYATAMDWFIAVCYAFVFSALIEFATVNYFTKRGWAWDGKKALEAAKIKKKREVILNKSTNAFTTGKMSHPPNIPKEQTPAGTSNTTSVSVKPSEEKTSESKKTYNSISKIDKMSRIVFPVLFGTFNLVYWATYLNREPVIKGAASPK
T1 sequence (P28472 26-473): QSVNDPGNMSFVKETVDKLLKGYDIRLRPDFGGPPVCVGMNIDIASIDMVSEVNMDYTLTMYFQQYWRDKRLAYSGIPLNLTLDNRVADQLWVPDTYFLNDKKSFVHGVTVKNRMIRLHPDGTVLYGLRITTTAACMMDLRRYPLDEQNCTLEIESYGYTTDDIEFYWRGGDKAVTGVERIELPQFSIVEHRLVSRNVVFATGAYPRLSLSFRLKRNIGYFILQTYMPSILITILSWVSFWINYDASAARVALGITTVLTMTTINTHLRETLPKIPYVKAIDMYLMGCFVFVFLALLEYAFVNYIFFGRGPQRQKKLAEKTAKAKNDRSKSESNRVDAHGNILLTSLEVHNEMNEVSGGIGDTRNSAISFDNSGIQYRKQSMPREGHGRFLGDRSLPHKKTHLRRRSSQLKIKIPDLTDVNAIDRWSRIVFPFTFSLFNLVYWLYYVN
T1 sequence (P18507 40-475): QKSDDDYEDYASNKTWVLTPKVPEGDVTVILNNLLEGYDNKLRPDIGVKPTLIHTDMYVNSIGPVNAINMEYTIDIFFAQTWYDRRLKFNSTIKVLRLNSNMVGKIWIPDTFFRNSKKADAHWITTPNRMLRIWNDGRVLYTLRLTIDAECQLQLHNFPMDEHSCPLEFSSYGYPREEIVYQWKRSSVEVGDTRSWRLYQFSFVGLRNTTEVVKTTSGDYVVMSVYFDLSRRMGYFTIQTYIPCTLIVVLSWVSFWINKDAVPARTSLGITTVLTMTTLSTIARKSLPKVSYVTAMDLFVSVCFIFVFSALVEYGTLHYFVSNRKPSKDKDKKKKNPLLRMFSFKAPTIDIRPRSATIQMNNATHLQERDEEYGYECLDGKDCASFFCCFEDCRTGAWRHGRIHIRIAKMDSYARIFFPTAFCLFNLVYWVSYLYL
Description: The agonist activity of the compounds of this invention was determined by measuring their effect on GABA-gated Cl— current from Xenopus oocytes expressing GABAA α5β3γ2 subtype receptor in a two-electrode voltage clamp (TEVC) setup.
In this study, the GABA-gated Cl^− current from oocytes expressing GABAAR α5β3γ2 subtype was measured in the TEVC setup in the presence of the test compounds. […] Upon conclusion of compound testing and successful washout, a 1.0 μM diazepam was tested and used for comparative activity on the two GABAAR subtypes.
Other concentrations of the test compound may also be tested following the same protocol.
Results are expressed as mean±SEM.

[3] = in vivo; format: in vivo, Long Evans rats; conditions: for concentration at 35 min: male, young Long Evans rats
Description: (§1) Food and water were available ad libitum.
For plasma exposures, blood samples were centrifuged at 14000 rpm for 16 minutes. After centrifuging, 50 ul of supernatant (plasma) from each sample was added to 200 μl of acetonitrile plus 0.1% formic acid. […] Samples were sonicated for 5 minutes in an ultrasonic water bath, followed by centrifugation for 30 minutes, at 16000 RPM. 100 ul of supernatant was removed from each sample vial and placed in a new glass auto sample vial, followed by the addition of 300 μl of sterile water (pH 6.5).
Additional studies were conducted in aged Long-Evans rats in order to determine the exposures at the behaviorally relevant doses in the cognition studies. Exposure in young Long-Evans rats was also determined to bridge with the receptor occupancy studies that were conducted in young Long-Evans rats. Exposures in young and aged Long-Evans rats were relatively similar (Table 3, FIG. 4).

[4] = target: α5-containing GABAA R (Homo sapiens, UniProt P18507+P31644); conditions: (EC20); van Niel et al. J. Med. Chem. 2005; cited from earlier work
α5-containing GABAA R, sequence (P31644 32-462): as the sequence (P31644 32-462) above
α5-containing GABAA R, sequence (P28472 26-473 partner): as the sequence (P28472 26-473) above
α5-containing GABAA R, sequence (P18507 40-475): as the sequence (P18507 40-475) above

[5] = tested on: GABAA α5 receptor; test: in vivo; format: in vivo, Long Evans rats; conditions: i.v.; for effect on Ro 15-4513 binding/levels in cerebellum: 0.01-10 mg/kg
Source text: as §1

[6] = target: T2, GABAA α5 receptor (Rattus norvegicus, UniProt P18508+P19969); test: in vivo; format: in vivo, Long Evans rats; conditions: for effect on Ro 15-4513 binding in hippocampus: 0.01-10 mg/kg; for dose dependence of GABAA α5 receptor occupancy: administered intravenously
T2 construct: from tissue; host or cells: rat brain in vivo; hippocampus compared with cerebellum
T2 sequence (P19969 32-464 limits assumed): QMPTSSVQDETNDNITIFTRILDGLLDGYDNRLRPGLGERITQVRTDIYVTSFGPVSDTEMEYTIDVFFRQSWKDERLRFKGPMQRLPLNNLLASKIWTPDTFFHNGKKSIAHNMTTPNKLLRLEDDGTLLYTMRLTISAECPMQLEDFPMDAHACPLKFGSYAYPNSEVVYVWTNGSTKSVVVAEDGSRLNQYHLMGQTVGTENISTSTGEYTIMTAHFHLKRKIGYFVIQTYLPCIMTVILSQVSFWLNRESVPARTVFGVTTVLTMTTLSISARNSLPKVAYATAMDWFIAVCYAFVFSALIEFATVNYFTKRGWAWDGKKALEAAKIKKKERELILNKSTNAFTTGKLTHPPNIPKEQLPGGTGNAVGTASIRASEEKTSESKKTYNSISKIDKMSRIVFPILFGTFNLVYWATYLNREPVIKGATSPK
T2 sequence (P18508 39-466): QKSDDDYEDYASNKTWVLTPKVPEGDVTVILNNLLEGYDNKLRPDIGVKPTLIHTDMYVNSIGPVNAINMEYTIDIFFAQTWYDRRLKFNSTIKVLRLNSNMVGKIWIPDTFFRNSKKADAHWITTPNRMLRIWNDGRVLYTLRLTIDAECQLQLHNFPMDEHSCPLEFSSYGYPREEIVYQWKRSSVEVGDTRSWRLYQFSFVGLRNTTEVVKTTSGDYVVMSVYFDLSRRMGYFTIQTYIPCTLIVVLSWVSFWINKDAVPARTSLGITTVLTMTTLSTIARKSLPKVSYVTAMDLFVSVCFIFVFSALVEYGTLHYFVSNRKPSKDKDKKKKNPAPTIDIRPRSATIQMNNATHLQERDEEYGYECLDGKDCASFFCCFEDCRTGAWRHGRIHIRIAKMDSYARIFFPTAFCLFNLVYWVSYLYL
Source text: as §1

[7] = tested on: aged-impaired (AI) rats; test: Radial Arm Maze (RAM) behavioral task, spatial memory retention; format: in vivo, rat
Description: The effects of methyl 3,5-diphenylpyridazine-4-carboxylate on the in vivo spatial memory retention of aged-impaired (AI) rats were assessed in a Radial Arm Maze (RAM) behavioral task using vehicle control and four different dosage levels of methyl 3,5-diphenylpyridazine-4-carboxylate ([…]). RAM behavioral tasks were performed on eight AI rats. All five treatment conditions (vehicle and four dosage levels) were tested on all eight rats.
The RAM apparatus used consisted of eight equidistantly-spaced arms. An elevated maze arm (7 cm width×75 cm length) projected from each facet of an octagonal center platform (30 cm diameter, 51.5 cm height). Clear side walls on the arms were 10 cm high and were angled at 65° to form a trough. A food well (4 cm diameter, 2 cm deep) was located at the distal end of each arm. Froot Loops™ (Kellogg Company) were used as rewards. Blocks constructed of Plexiglas™ (30 cm height×12 cm width) could be positioned to prevent entry to any arm. Numerous extra maze cues surrounding the apparatus were also provided.
The AI rats were initially subjected to a pre-training test (Chappell et al. Neuropharmacology 37: 481-487, 1998). The pre-training test consisted of a habituation phase (4 days), a training phase on the standard win-shift task (18 days) and another training phase (14 days) in which a brief delay was imposed between presentation of a subset of arms designated by the experimenter (e.g., 5 arms available and 3 arms blocked) and completion of the eight-arm win-shift task (i.e., with all eight arms available).
In the habituation phase, rats were familiarized to the maze for an 8-minute session on four consecutive days. In each of these sessions, food rewards were scattered on the RAM, initially on the center platform and arms and then progressively confined to the arms. After this habituation phase, a standard training protocol was used, in which a food pellet was located at the end of each arm. Rats received one trial each day for 18 days. Each daily trial terminated when all eight food pellets had been obtained or when either 16 choices were made or 15 minutes had elapsed. After completion of this training phase, a second training phase was carried out in which the memory demand was increased by imposing a brief delay during the trial. At the beginning of each trial, three arms of the eight-arm maze were blocked. Rats were allowed to obtain food on the five arms to which access was permitted during this initial “information phase” of the trial. Rats were then removed from the maze for 60 seconds, during which time the barriers on the maze were removed, thus allowing access to all eight arms. Rats were then placed back onto the center platform and allowed to obtain the remaining food rewards during this “retention test” phase of the trial. […]

[8] = in vivo; format: in vivo, Long Evans rats; conditions: male, Long Evans, rat, iv, tracer 1 μg/kg, i.v., after vehicle administration
Source text: as §1

[9] = probe test 24 hr after training
[10] = dose increase from 1 to 10 mg/kg, i.v.

## CC1(C)CC(=O)c2c(SCCCO)sc(-c3nccs3)c2C1 [6,6 dimethyl-3-(3-hydroxypropyl)thio-1-(thiazol-2-yl)-6,7-dihydro-2-benzothiophen-4(5H)-one]
[1]
  learning of the water maze task: improved the learning of the water maze task
  long-term memory in the water maze task: improved the long-term memory
[1]; beginning of training (block 1)
  time to find the escape platform (escape latency): about 24 seconds
[1]; end of training (block 4)
  time to find the escape platform (escape latency): about 9.6 seconds
[1]; [9]
  number of crossings of target annulus vs opposite annulus: crossed the “target annulus” more often
  time in target annulus vs opposite annulus: spent significantly more time in the target annulus

## CCN(CC)C(=O)c1ncn2c1Cn1nnc(C)c1-c1cc(OC)ccc1-2 [Compound 2]
[2]
  activation at 10 µM: 6.2%

## COC(=O)c1c(-c2ccccc2)cnnc1-c1ccccc1 [methyl 3,5-diphenylpyridazine-4-carboxylate]
[3]; Long Evans, rat, in vivo, read-out: brain/plasma ratios
  Kp: > 1
[3]; dose increase from 0.1 to 1 mg/kg, i.v.
  increase in hippocampal exposure: 12 fold
[3]; [10]
  increase in hippocampal exposure: ~5 fold
  increase in plasma exposure: 12 fold
[3]; Long Evans, rat, in vivo, 0.1 mg/kg, i.v., read-out: Hippocampus exposure (SEM)
  concentration at 35 min: 14.6 ng/g
[3]; Long Evans, rat, in vivo, 1 mg/kg, i.v., read-out: Hippocampus exposure (SEM)
  concentration at 35 min: 180 ng/g
[3]; Long Evans, rat, in vivo, 1 mg/kg, i.v., read-out: Plasma exposure (SEM)
  concentration at 35 min: 62.8 ng/mL
[3]; Long Evans, rat, in vivo, 10 mg/kg, i.v., read-out: Hippocampus exposure (SEM)
  concentration at 35 min: 947 ng/g
[3]; Long Evans, rat, in vivo, 10 mg/kg, i.v., read-out: Plasma exposure (SEM)
  concentration at 35 min: 764 ng/mL
[4]
  α5 in vitro efficacy: +27
[5]
  effect on Ro 15-4513 binding/levels in cerebellum: did not affect binding of Ro15413 in the cerebellum; also recorded: without affecting cerebellum levels of Ro 15-4513
[6]; i.v.
  effect on Ro 15-4513 binding in hippocampus: blocked the binding of Ro154513 in the hippocampus; also recorded: dose-dependently reduced Ro 15-4513 binding in hippocampus
[6]
  dose dependence of GABAA α5 receptor occupancy: dose-dependent increase
[7]; 3 mg/kg i.p., two-hour delay RAM, AI rats
  average no. of errors ± SEM in retention test: 1.31±0.40
[7]; 3 mg/kg i.p., two-hour delay RAM, t(7)=4.233, p=0.004
  memory performance relative to vehicle control: significantly improved memory performance

## CCOC(=O)c1ncn2c1CN(C)C(=O)c1cc(N=[N+]=[N-])ccc1-2 [Ro 15-4513]
[5]; tracer 1 μg/kg, after vehicle administration
  higher levels in hippocampus compared with cerebellum: > 5 fold
[8]; cerebellum, read-out: levels of Ro 15-4513 in cerebellum
  concentration at 20 min: 0.36 ± 0.02 ng/g
[8]; hippocampus, read-out: levels of Ro 15-4513 in hippocampus
  concentration at 20 min: 1.93 ± 0.05 ng/g

## CCOC(=O)c1ncn2c1Cn1nnc(C)c1-c1cc(Cl)ccc1-2 [Compound 9]
[2]
  activation at 1 µM: 8.3%

## CCOC(=O)c1ncn2c1Cn1c(C)nnc1-c1cc(OC)ccc1-2 [ethyl 3-methoxy-7-methyl-9H-benzo[f]imidazo[1,5-a][1,2,4]triazolo[4,3-d][1,4]diazepine-10-carboxylate]
[5]
  effect on Ro 15-4513 binding/levels in cerebellum: did not affect binding of Ro15413 in the cerebellum; also recorded: without affecting cerebellum levels of Ro 15-4513
[6]; i.v.
  effect on Ro 15-4513 binding in hippocampus: blocked the binding of Ro154513 in the hippocampus; also recorded: reduced Ro 15-4513 binding in hippocampus
[6]; 10 mg/kg, i.v.
  GABAA α5 receptor occupancy: > 90%
[6]
  dose dependence of GABAA α5 receptor occupancy: dose-dependent
[7]; 3 mg/kg, four-hour delay RAM, t(7)=4.13, p=0.004, or t(7)=3.08, p=0.018
  memory performance relative to vehicle control: significantly improved memory performance
[7]; 10 mg/kg, four-hour delay RAM, t(7)=2.82, p=0.026
  memory performance relative to vehicle control: significantly improved memory performance

## CCc1nnn2c1-c1cc(OC)ccc1-n1cnc(C(=O)N(CC)CC)c1C2 [Compound 7]
[2]
  activation at 1 µM: 11.1%
